According to patent US20240382629A1, “HETEROBIVALENT AND HOMOBIVALENT AGENTS TARGETING FIBROBLAST ACTIVATION PROTEIN ALPHA AND/OR PROSTATE-SPECIFIC MEMBRANE ANTIGEN” (The Johns Hopkins University, priority 2021, published 2024):
Values joined by “and” are separate entries in the source; they are usually repeats but may differ in a detail not shown here. Equal entries are not always repeated.

Assay: Biodistribution of [^18F]JHU122047 with UAMC-01110 blocker
Type: in vivo, mouse
Conditions: 60 min; for % ID/g Bladder / % ID/g Blood / % ID/g Brain / % ID/g Fat / % ID/g Femur / % ID/g Heart / % ID/g Kidney / % ID/g Large intestine / % ID/g Liver / % ID/g Lung / % ID/g Muscle / % ID/g Pancreas / % ID/g Salivery gland / % ID/g Small intestine / % ID/g Spleen / % ID/g Stomach / % ID/g Tumor: individual mouse
[1] = NOD/SCID Model, + Blocker (UAMC-01110)
[2] = Nude Model, + Blocker (UAMC-01110)

## N#C[C@@H]1CCCN1C(=O)CNC(=O)c1ccnc2ccc(OCCCNC(=O)[C@H](CCNC(=O)c3ccc([18F])nc3)NC(=O)CN3CCN(CC(=O)[O-])CCN(CC(=O)[O-])CCN(CC(=O)[O-])CC3)cc12.[In+3] [[^18F]Sri-08-51]
[1]
  % ID/g Bladder: 13.35 % ID/g and 61.94 % ID/g
  % ID/g Blood: 0.22 % ID/g and 0.40 % ID/g
  % ID/g Brain: 0.02 % ID/g and 1.02 % ID/g
  % ID/g Fat: 0.06 % ID/g
  % ID/g Femur: 0.88 % ID/g and 0.38 % ID/g
  % ID/g Heart: 0.11 % ID/g and 0.25 % ID/g
  % ID/g Kidney: 1.42 % ID/g and 1.40 % ID/g
  % ID/g Large intestine: 0.19 % ID/g and 0.35 % ID/g
  % ID/g Liver: 4.02 % ID/g and 8.14 % ID/g
  % ID/g Lung: 0.32 % ID/g and 0.61 % ID/g
  % ID/g Muscle: 0.07 % ID/g and 0.49 % ID/g
  % ID/g Pancreas: 0.08 % ID/g and 0.17 % ID/g
  % ID/g Salivery gland: 0.45 % ID/g and 0.26 % ID/g
  % ID/g Small intestine: 0.94 % ID/g and 2.12 % ID/g
  % ID/g Spleen: 0.14 % ID/g and 0.32 % ID/g
  % ID/g Stomach: 0.25 % ID/g and 0.45 % ID/g
  % ID/g Tumor: 1.34 % ID/g and 0.91 % ID/g
  % ID/g Bladder Mean: 37.64 % ID/g
  % ID/g Blood Mean: 0.31 % ID/g
  % ID/g Brain Mean: 0.52 % ID/g
  % ID/g Fat Mean: 0.06 % ID/g
  % ID/g Femur Mean: 0.88 % ID/g
  % ID/g Heart Mean: 0.18 % ID/g
  % ID/g Kidney Mean: 1.41 % ID/g
  % ID/g Large intestine Mean: 0.27 % ID/g
  % ID/g Liver Mean: 6.08 % ID/g
  % ID/g Lung Mean: 0.47 % ID/g
  % ID/g Muscle Mean: 0.28 % ID/g
  % ID/g Pancreas Mean: 0.13 % ID/g
  % ID/g Salivary gland Mean: 0.35 % ID/g
  % ID/g Small intestine Mean: 1.53 % ID/g
  % ID/g Spleen Mean: 0.23 % ID/g
  % ID/g Stomach Mean: 0.35 % ID/g
  % ID/g Tumor Mean: 1.13 % ID/g
NOD/SCID Model, no blocker
  % ID/g Bladder: 44.77 % ID/g and 23.08 % ID/g
  % ID/g Blood: 4.18 % ID/g and 5.83 % ID/g
  % ID/g Brain: 0.26 % ID/g and 0.25 % ID/g
  % ID/g Fat: 2.81 % ID/g and 0.45 % ID/g
  % ID/g Femur: 4.83 % ID/g and 5.16 % ID/g
  % ID/g Heart: 1.74 % ID/g and 2.39 % ID/g
  % ID/g Kidney: 2.10 % ID/g and 2.19 % ID/g
  % ID/g Large intestine: 1.91 % ID/g and 1.87 % ID/g
  % ID/g Liver: 3.23 % ID/g and 4.21 % ID/g
  % ID/g Lung: 2.77 % ID/g and 2.76 % ID/g
  % ID/g Muscle: 2.84 % ID/g and 2.83 % ID/g
  % ID/g Pancreas: 3.99 % ID/g and 4.82 % ID/g
  % ID/g Salivery gland: 12.48 % ID/g and 14.32 % ID/g
  % ID/g Small intestine: 2.09 % ID/g
  % ID/g Spleen: 1.27 % ID/g and 1.71 % ID/g
  % ID/g Stomach: 1.65 % ID/g and 1.75 % ID/g
  % ID/g Tumor: 16.64 % ID/g and 15.98 % ID/g
  % ID/g Bladder Mean: 33.92 % ID/g
  % ID/g Blood Mean: 5.01 % ID/g
  % ID/g Brain Mean: 0.25 % ID/g
  % ID/g Fat Mean: 1.63 % ID/g
  % ID/g Femur Mean: 5.00 % ID/g
  % ID/g Heart Mean: 2.07 % ID/g
  % ID/g Kidney Mean: 2.15 % ID/g
  % ID/g Large intestine Mean: 1.89 % ID/g
  % ID/g Liver Mean: 3.72 % ID/g
  % ID/g Lung Mean: 2.77 % ID/g
  % ID/g Muscle Mean: 2.84 % ID/g
  % ID/g Pancreas Mean: 4.40 % ID/g
  % ID/g Salivary gland Mean: 13.40 % ID/g
  % ID/g Small intestine Mean: 2.09 % ID/g
  % ID/g Spleen Mean: 1.49 % ID/g
  % ID/g Stomach Mean: 1.70 % ID/g
  % ID/g Tumor Mean: 16.31 % ID/g
[2]
  % ID/g Bladder: 0.22 % ID/g and 0.74 % ID/g
  % ID/g Blood: 0.10 % ID/g
  % ID/g Brain: 0.01 % ID/g
  % ID/g Fat: 0.03 % ID/g and 0.01 % ID/g
  % ID/g Femur: 0.12 % ID/g
  % ID/g Heart: 0.05 % ID/g
  % ID/g Kidney: 1.19 % ID/g and 1.05 % ID/g
  % ID/g Large intestine: 0.08 % ID/g and 0.11 % ID/g
  % ID/g Liver: 1.88 % ID/g and 2.01 % ID/g
  % ID/g Lung: 0.21 % ID/g and 0.22 % ID/g
  % ID/g Muscle: 0.07 % ID/g and 0.04 % ID/g
  % ID/g Pancreas: 0.05 % ID/g
  % ID/g Salivery gland: 0.07 % ID/g and 0.08 % ID/g
  % ID/g Small intestine: 3.50 % ID/g and 2.97 % ID/g
  % ID/g Spleen: 0.08 % ID/g
  % ID/g Stomach: 0.08 % ID/g and 0.15 % ID/g
  % ID/g Tumor: 0.17 % ID/g and 0.18 % ID/g
  % ID/g Bladder Mean: 0.48 % ID/g
  % ID/g Blood Mean: 0.10 % ID/g
  % ID/g Brain Mean: 0.01 % ID/g
  % ID/g Fat Mean: 0.02 % ID/g
  % ID/g Femur Mean: 0.12 % ID/g
  % ID/g Heart Mean: 0.05 % ID/g
  % ID/g Kidney Mean: 1.12 % ID/g
  % ID/g Large intestine Mean: 0.09 % ID/g
  % ID/g Liver Mean: 1.95 % ID/g
  % ID/g Lung Mean: 0.21 % ID/g
  % ID/g Muscle Mean: 0.05 % ID/g
  % ID/g Pancreas Mean: 0.05 % ID/g
  % ID/g Salivary gland Mean: 0.08 % ID/g
  % ID/g Small intestine Mean: 3.24 % ID/g
  % ID/g Spleen Mean: 0.08 % ID/g
  % ID/g Stomach Mean: 0.11 % ID/g
  % ID/g Tumor Mean: 0.18 % ID/g
Nude Model, no blocker
  % ID/g Bladder: 1.18 % ID/g and 2.99 % ID/g
  % ID/g Blood: 3.06 % ID/g and 3.20 % ID/g
  % ID/g Brain: 0.09 % ID/g and 0.08 % ID/g
  % ID/g Fat: 0.52 % ID/g and 0.77 % ID/g
  % ID/g Femur: 4.44 % ID/g and 3.86 % ID/g
  % ID/g Heart: 1.35 % ID/g and 1.52 % ID/g
  % ID/g Kidney: 1.69 % ID/g and 1.72 % ID/g
  % ID/g Large intestine: 1.20 % ID/g and 1.30 % ID/g
  % ID/g Liver: 1.81 % ID/g and 1.93 % ID/g
  % ID/g Lung: 2.03 % ID/g and 2.25 % ID/g
  % ID/g Muscle: 1.86 % ID/g and 1.93 % ID/g
  % ID/g Pancreas: 3.94 % ID/g and 3.77 % ID/g
  % ID/g Salivery gland: 7.74 % ID/g
  % ID/g Small intestine: 1.93 % ID/g and 1.63 % ID/g
  % ID/g Spleen: 0.90 % ID/g and 1.02 % ID/g
  % ID/g Stomach: 1.06 % ID/g and 1.16 % ID/g
  % ID/g Tumor: 10.87 % ID/g and 13.08 % ID/g
  % ID/g Bladder Mean: 2.09 % ID/g
  % ID/g Blood Mean: 3.13 % ID/g
  % ID/g Brain Mean: 0.09 % ID/g
  % ID/g Fat Mean: 0.64 % ID/g
  % ID/g Femur Mean: 4.15 % ID/g
  % ID/g Heart Mean: 1.43 % ID/g
  % ID/g Kidney Mean: 1.70 % ID/g
  % ID/g Large intestine Mean: 1.25 % ID/g
  % ID/g Liver Mean: 1.87 % ID/g
  % ID/g Lung Mean: 2.14 % ID/g
  % ID/g Muscle Mean: 1.90 % ID/g
  % ID/g Pancreas Mean: 3.85 % ID/g
  % ID/g Salivary gland Mean: 8.22 % ID/g
  % ID/g Small intestine Mean: 1.78 % ID/g
  % ID/g Spleen Mean: 0.96 % ID/g
  % ID/g Stomach Mean: 1.11 % ID/g
  % ID/g Tumor Mean: 11.97 % ID/g
